We go through two compounds from patent publication US20240315993A1, “ANTIPARASITIC COMPOUNDS” (Intervet Inc., priority 2021, published 2024).

Assay [1] deals with bed bugs (Cimex lectularius). Description: Guinea pig - efficacy against bed bug. The format is in vivo. The essentials: (§1)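 Guinea pigs given 5 mg/kg test compound orally (gavage) or s.c. in 10% DMF/emulsifier plus 90% water for injection, with local co-infestations of Ornithodoros moubata juveniles and Cimex lectularius at several post-treatment times. Engorged parasites scored dead/damaged about 24 h after collection; % inhibition versus pretreatment baseline by modified Schneider-Orelli formula.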

The subject of assay [2] is juvenile soft ticks (Ornithodoros moubata). Description: Guinea pig - efficacy against argaside tick. It is filed as in vivo. Put shortly:
as §1

For assay [3], the system named is Fly larvae I (Lucilia cuprina). Description: Fly larvae contact/feeding assay. The following applies: 48 h, read-out: Inhibition of fly larvae development. The method, then: Fly larvae I (Lucilia cuprina) were grown in medium spiked with declining concentrations of a test compound (dissolved in a DMSO-emulsifier-deionized water mixture). Inhibition of fly larvae development (%) was assessed after approximately 48 hours of continuous exposure. The vitality of used parasites was confirmed in negative control groups (i.e., an untreated control and a solvent control).

The subject of assay [4] is Copepodids (juvenile sea lice stage of Lepeophtheirus salmonis). Description: Juvenile sea lice contact assay. Conditions: Lepeophtheirus salmonis, ~24 h, read-out: Sea lice inhibition (% of dead+damaged copepodids). The method, then:
Copepodids (juvenile sea lice stage of Lepeophtheirus salmonis) were exposed to seawater spiked with declining concentrations of a test compound (dissolved in a DMSO sea-water mixture). Sea lice inhibition (% of dead+damaged copepodids) was assessed after approximately 24 hours of continuous exposure. The vitality of used parasites was confirmed in a negative (solvent) control group.

Assay [5] deals with Rhipicephalus microplus tick larvae. Briefly: Tick larvae contact assay. Conditions: ~3 min immersion, assessed ~24 h after, read-out: Tick inhibition (% of damage+dead ticks). The method, then: Tick larvae (Rhipicephalus microplus) were immersed for approximately 3 minutes in declining concentrations of a test compound (dissolved in a DMSO-emulsifier-deionized water mixture). Tick inhibition (% of damage+dead ticks per test concentration) was assessed approximately 24 hours after contact exposure. The vitality of used parasites was confirmed in negative control groups (i.e. an untreated control and a solvent control).

Assay [6] deals with Lepeophtheirus salmonis. Briefly: Salmon - in vivo efficacy against sea lice using gavage administration. Conditions: 5 mg/kg once by gavage, day -3 infestation, counted around day 28. The essentials: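 Salmon given a single oral gavage of 5 mg/kg in 5% DMSO/95% fish oil on day 0, with vehicle controls. L. salmonis copepodid infestations around days −28, −3 and 17; lice counted by stage around day 28, efficacy as % reduction versus control by Abbott's formula.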

In assay [7] the test system is Lepeophtheirus salmonis. The assay is described as above. The following applies: po, 168 h, read-out: therapeutic efficacy against (pre-)adult sea lice (% reduction vs control), salmon, 5 mg/kg once by gavage, day -28 infestation, counted day 7.
For assay [8], the system named is Adult fleas (Ctenocephalides felis). Description: Flea feeding assay. Conditions: 1 ppm in blood, ~48 h membrane feeding, read-out: flea inhibition (% of dead+damaged fleas). The method, then: Adult fleas (Ctenocephalides felis) of defined age were fed on artificial membranes with blood spiked with declining concentrations of a test compound (dissolved in a DMSO-emulsifier-blood mixture). After approximately 48 hours of continuous feeding, flea inhibition (i.e., % of dead+damaged fleas per test concentration) was assessed. The vitality of used parasites was confirmed in negative control groups (i.e., an untreated control and a solvent control).

The test system of assay [9] is Mobile stages of sea lice (pre-adults, adults of Lepeophtheirus salmonis). Description: Adult sea lice contact assay. Conditions: pre-adults/adults, assessed after ~1 and 24 h, read-out: EC50 (sea lice inhibition, dead+damaged). The method, then:
Mobile stages of sea lice (i.e., pre-adults, adults of Lepeophtheirus salmonis) were exposed to seawater spiked with declining concentrations of a test compound (dissolved in a PEG sea-water mixture). Sea lice inhibition (% of dead+damaged sea lice) was assessed after approximately 1 and 24 hours of continuous exposure in comparison to a negative (solvent) control group.

Where [10] appears, read: 5 mg/kg subcutaneous, after 7 days.
The mark [11] stands for this setting: 5 mg/kg subcutaneous, after 10 days.
Setting [12] is: 5 mg/kg subcutaneous, after 14 days.
[13] abbreviates: 5 mg/kg subcutaneous, after 17 days.
The mark [14] stands for this setting: 5 mg/kg, at least until Day 10, both administration routes (oral, subcutaneous).

The term inhibition denotes the percentage by which the read-out fell short of the control. For the compound `CN(C(=O)c1cc(NC(=O)[C@H]2[C@H](c3cc(Cl)cc(Cl)c3)C2(Cl)Cl)ccc1Cl)c1ccc(F)cc1` [Compound 51], the “activity against bed bugs (≥80% inhibition, killed+damaged)” value in [1] (5 mg/kg oral, Day 0) was “immediate activity”; in [1] (5 mg/kg oral, after 7 days), “activity”; in [1] (5 mg/kg subcutaneous, Day 0), “immediate activity”; in assay [1] (setting [10]) it was “activity”; in assay [1] (setting [11]), “activity”; in [1] (setting [12]) it was “activity”. Moreover, in [1] (setting [13]), the “activity against bed bugs (≥80% inhibition, killed+damaged)” value was “activity”. Moreover, the “activity against tick nymphs (≥80% inhibition, killed+damaged)” value in assay [2] (5 mg/kg oral, Day 0) is on record as “immediate activity”; in [2] (5 mg/kg oral, after 7 days), “activity”; in [2] (5 mg/kg subcutaneous, Day 0), “immediate activity”; in assay [2] (setting [10]) it was “activity”; in assay [2] (setting [11]), “activity”; in assay [2] (setting [12]), “activity”. Besides, in [2] (setting [13]), the “activity against tick nymphs (≥80% inhibition, killed+damaged)” value is “activity”. For the same compound, the “duration of efficacy, subcutaneous compared with oral administration” value in [2] (5 mg/kg, ticks and bed bugs) was “longer duration of efficacy”. Also, the inhibition at 100 ppm in assay [3] and in assay [5] was 80% throughout. For the same compound, the inhibition at 0.1 µM in assay [4] (100 nM in seawater) is not below 80%. In addition, the inhibition at 25 µM in assay [5] (25 μM) was not below 80%. Further, in assay [5] (49 μM), the inhibition at 49 µM stood at 80%. Further, the inhibition at 388 µM in assay [5] (388 μM) worked out at 80%.
As usually defined, the EC50 is the concentration needed to bring the measured effect to its halfway point. `O=C(Nc1ncc(F)cc1F)c1cc(NC(=O)[C@H]2[C@H](c3ccc(Cl)c(Cl)c3)C2(Cl)Cl)ccc1Cl` [Compound 86]: in [6], the “therapeutic efficacy against juvenile sea lice (% reduction vs control)” value is recorded as 100%. Further, the inhibition in vivo at 5 mg/kg in assay [7] came out at 100%. In addition, the inhibition at 1 ppm in [8] was 80%. The “activity against bed bugs (≥80% inhibition, killed+damaged)” value was “immediate activity” in [1] (5 mg/kg oral, Day 0); “activity” in [1] (5 mg/kg oral, after 7 days); “activity” in [1] (5 mg/kg oral, after 10 days); “immediate activity” in [1] (5 mg/kg subcutaneous, Day 0); “activity” in assay [1] (setting [10]); “activity” in assay [1] (setting [11]). In assay [1] (setting [14]), the “effective to control bed bugs” value worked out at 100%. Also, the “activity against tick nymphs (≥80% inhibition, killed+damaged)” value in assay [2] (5 mg/kg oral, Day 0) is reported as “immediate activity”; in assay [2] (5 mg/kg oral, after 7 days), “activity”; in assay [2] (5 mg/kg oral, after 10 days), “activity”; in assay [2] (5 mg/kg subcutaneous, Day 0) it was “immediate activity”; in assay [2] (setting [10]) it was “activity”; in assay [2] (setting [11]), “activity”. Also, in [2] (setting [14]), the “effective to control ticks” value came out at 100%. The inhibition at 100 ppm in assay [3] and in assay [5] was 80% in each case. In [4] (10 nM in seawater), the inhibition at 0.01 µM was found to be 100%. For the same compound, in [9], the EC50 was not above 10 nM.
